How the values were obtained:
renin = target: T1, renin (Homo sapiens, UniProt P00797); test: Inhibition of renin (specificity); type: biochemical
T1 sequence (P00797 67-406): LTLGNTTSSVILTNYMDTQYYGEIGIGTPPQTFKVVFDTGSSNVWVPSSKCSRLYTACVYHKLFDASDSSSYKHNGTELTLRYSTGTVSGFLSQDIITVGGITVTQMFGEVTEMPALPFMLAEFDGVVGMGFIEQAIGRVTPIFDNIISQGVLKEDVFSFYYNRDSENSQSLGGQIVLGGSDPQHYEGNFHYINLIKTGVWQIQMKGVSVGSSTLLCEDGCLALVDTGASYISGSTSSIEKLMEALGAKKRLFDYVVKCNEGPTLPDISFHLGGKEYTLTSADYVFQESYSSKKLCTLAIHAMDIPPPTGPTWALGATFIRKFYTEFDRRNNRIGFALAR

cathepsin D = cathepsin D (Homo sapiens, UniProt P07339); test: Inhibition of cathepsin D (specificity); type: biochemical
Sequence of cathepsin D (P07339 65-412): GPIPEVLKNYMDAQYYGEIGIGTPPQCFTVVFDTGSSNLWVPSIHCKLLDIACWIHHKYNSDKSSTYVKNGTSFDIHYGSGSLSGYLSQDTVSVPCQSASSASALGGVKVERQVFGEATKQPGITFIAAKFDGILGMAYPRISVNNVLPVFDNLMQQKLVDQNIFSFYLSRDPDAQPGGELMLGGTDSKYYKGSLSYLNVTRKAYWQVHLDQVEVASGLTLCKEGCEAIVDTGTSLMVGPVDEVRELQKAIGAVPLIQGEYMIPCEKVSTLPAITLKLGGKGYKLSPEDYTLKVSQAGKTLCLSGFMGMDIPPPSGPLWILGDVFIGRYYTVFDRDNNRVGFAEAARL

[1] = target: T2, recombinant HIV-2-proteinase (Human immunodeficiency virus type 2 subtype A, UniProt P04584); test: Assay of peptide cleavage by HIV-proteinase (HIV-2); type: biochemical; conditions: substrate H-Lys-Ala-Arg-Val-Leu-Nph-Glu-Ala-Nle-NH2
T2 construct: recombinant HIV-1- and HIV-2-proteinase
T2 sequence (P04584 514-612 limits assumed): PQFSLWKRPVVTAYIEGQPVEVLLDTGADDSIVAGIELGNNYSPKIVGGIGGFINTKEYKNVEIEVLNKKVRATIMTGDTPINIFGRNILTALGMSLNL
Experimental: (§1) 1. Assay of peptide cleavage by HIV-proteinase
(§2) Inhibition of HIV-proteinase is measured as described in the literature: A. Richards et al., J. Biol. Chem. 265, 773-7736 (1990) and L. H. Philip et al., Biochem. Biophys. Res. Comun. 171,439-444 (1990). Briefly the peptide H-Lys-Ala-Arg-Val-Leu-Nph-Glu- Ala-Nle-NH2 (where Nph is p-nitrophenylalanine and Nle is norleucine) is used as substrate for recombinant HIV-1- and HIV-2-proteinase. Cleavage occurs between the Leu and Nph residues. The reaction is followed spectrophotometrically by the decrease in extinction at 300 nm which is observed upon cleavage.

[2] = Assay of oral bioavailability in mice; design: species or system Female Balb/c mice; conditions: mouse, in vivo
Experimental: As is known from the literature, peptide based drugs characteristically show poor oral bioavailability. Since with HIV patients long term medication with proteinase inhibitors is anticipated, it is important that a useful drug be orally bioavailable. This is one of the main obstacles in the development of effective drugs in this peptidic structural class. […] This can be shown e.g. in the following test:
For peroral administration, a solution of the test substance (25 mg/ml) in a suitable solvent such as Cremophor RH40^R /Maisine^R /propylene glycol / ethanol (38/32/15/15) is prepared. Female Balb/c mice are fasted for 24 hours prior to the start, and throughout the experiment water is given ad libitum. At various times following drug administration, blood samples are obtained by sacrificing animals under anaesthesia by cutting the vena jugularis, followed by cervical dislocation. Samples are collected in heparinized tubes (typically 0.4-0.6 ml). For sample analysis solid phase extraction and HPLC are used. Drug concentration in the samples is calculated by least-squares linear regression analysis of the peak area ratio (inhibitor/internal standard) of spiked blood standards versus concentration. From the concentration versus time data, the "Area Under the Curve" (AUC) value is calculated by the trapezoidal rule.

[3] = target: recombinant HIV-1-proteinase (Human immunodeficiency virus type 1 group M subtype B, UniProt P04585); test: biochemical
Experimental: as §1, §2

[4] = system: HIV-1 (HTLV IIIB)-induced cytopathic effect in MT4-cells; test: Cellular assay: inhibition of HIV-1-induced cytopathic effect in MT4-cells (MTT); type: cell-based; conditions: Human immunodeficiency virus 1, read-out: IC50 in the cellular assay (virus-inhibitory concentration)
Experimental: Inhibition of the HIV-1 (HTLV IIIB)-induced cytopathic effect is measured in MT4-cells as described in the literature (R. Pauwels et al, J. Virol. Meth. 20 309-321 [1988]). Briefly, an HTLV-1 transformed T4 cell line, MT4, which has been shown previously to be highly permissive to HIV infection, serves as a target cell line. Inhibition of HIV-induced cytopathic effect is used as the end point. The viability of both HIV- and mock-infected cells is assessed spectrophotometrically via the in situ-reduction of 3-(4,5-dimethylthiazol-2-yl)-2,5-diphenyltetrazolium bromide (MTT). The comparison of the effects of various concentrations of the agent on HIV- versus mock-infected cells allows the determination of cytotoxic (TC50) and virus-inhibitory (IC50) concentrations.

- inhibition of endogenous proteinase renin (renin): does not inhibit
- inhibition of endogenous proteinase cathepsin D (cathepsin D): does not inhibit
- Ki [1]: 50 nM
- oral uptake [2]: excellent oral uptake
- Ki [3]: 9.5 nM
Compound: COc1ccc(CNC(C(=O)NC2c3ccccc3CC2O)C(O)C(Cc2ccccc2)NC(=O)C(NC(=O)OCc2ccccc2)C(C)(C)C)cc1 [Example 2, 4(S)-(Benzyloxycarbonyl-L-tert-leucinoy)amino-3(S)-hydroxy-2(R)-(4-methoxybenzylamino)-5-phenyl-pentanoic acid 1 (S)-amino-2(R)-hydroxyindan-amide]
- IC50 [4]: 250 nM

Source: patent US5538997A, “2,4-diamino-3-hydroxycarboxylic acid derivatives” (Sandoz Ltd., priority 1993, dated 1996)
